Experimental data as given in the C3SDB collision cross section collection.
Values joined by “and” are separate entries in the source; they are usually repeats but may differ in a detail not shown here. Identical values can stand only once.

Assays:
[1] = instrument: TW, calibrated with polyalanine
[2] = [M-H]-; instrument: TW; calibrated with phosphatidylcholines (ESI+) and phosphatidylethanolamines (ESI-)
[3] = instrument: DT, single field, calibrated with Agilent tune mix (Agilent)
[4] = [M-H]-; instrument: DT; stepped-field
[5] = instrument: TW, calibrated with phosphatidylcholines (ESI+) and phosphatidylethanolamines (ESI-)

SMILES	collision cross section (N2) ([1]; [M+H]+) [Å²]	collision cross section (N2) ([1]; [M+K]+) [Å²]	collision cross section (N2) ([1]; [M+Na]+) [Å²]	other results
COc1cc2c(c3oc(=O)c4c(c13)CCC4=O)[C@@H]1CCO[C@@H]1O2 [Aflatoxin B2]	162	181.4	176.8	
Cc1cc(O)cc2oc(=O)c3c(O)cc(O)cc3c12 [Alternariol]				collision cross section (N2) ([1]; [M-H]-): 146 Å²
CC(C)[C@H]1OC(=O)[C@H](Cc2ccccc2)N(C)C(=O)[C@@H](C(C)C)OC(=O)[C@H](Cc2ccccc2)N(C)C(=O)[C@@H](C(C)C)OC(=O)[C@H](Cc2ccccc2)N(C)C1=O [Beauvericin]	283.8	290.3	287.4	collision cross section (N2) ([1]; [M+NH4]+): 269 Å²
CC[C@H](C)[C@H]1C(=O)O[C@H](C(C)C)C(=O)N(C)[C@@H]([C@@H](C)CC)C(=O)O[C@H](C(C)C)C(=O)N(C)[C@@H](C(C)C)C(=O)O[C@H](C(C)C)C(=O)N1C [Enniatin A1]	252.2	257.9	258	collision cross section (N2) ([1]; [M+NH4]+): 259 Å²
CC[C@H](C)[C@H]1C(=O)O[C@H](C(C)C)C(=O)N(C)[C@@H]([C@@H](C)CC)C(=O)O[C@H](C(C)C)C(=O)N(C)[C@@H]([C@@H](C)CC)C(=O)O[C@H](C(C)C)C(=O)N1C [Enniatin A]	257.9	264.7	262.4	collision cross section (N2) ([1]; [M+NH4]+): 264 Å²
CCCC[C@@H](C)[C@@H](OC(=O)C[C@@H](CC(=O)O)C(=O)O)[C@H](C[C@@H](C)C[C@H](O)CCCC[C@@H](O)C[C@H](O)[C@H](C)N)OC(=O)C[C@@H](CC(=O)O)C(=O)O [Fumonisin B1]	258	269	264.4	
CCCC[C@@H](C)[C@@H](OC(=O)CC(CC(=O)O)C(=O)O)[C@H](C[C@@H](C)C[C@H](O)CCCCCC[C@@H](O)[C@H](C)N)OC(=O)CC(CC(=O)O)C(=O)O (stereo partly specified) [Fumonisin B3]	258	264.5	259.2	
CCCC[C@@H](C)[C@@H](OC(=O)C[C@@H](CC(=O)O)C(=O)O)[C@H](C[C@@H](C)CCCCCCCC[C@H](O)[C@H](C)N)OC(=O)C[C@@H](CC(=O)O)C(=O)O [Fumonisin B4]	255	264.6	260.4	
C=CC(C)(C)[C@@]12C=C(O)C(=O)N3/C(=C/c4cnc[nH]4)C(=O)N[C@]31N(OC)c1ccccc12 [Meleagrin]	201			
COc1c(C)c2c(c(O)c1C/C=C(\C)CCC(=O)O)C(=O)OC2 [Mycophenolic acid]				collision cross section (N2) ([1]; [M+NH4]+): 176 Å²
CCCCCCCC/C=C\CCCCCCCCCC(=O)O[C@H](COC(=O)CCCCCCCCCCC)COP(=O)(O)OC[C@@H](O)CO [PG(32:1)]				collision cross section (N2) [2]: 263.3 Å²; collision cross section (N2) ([3]; [M-H]-): 263.3 Å²; collision cross section (N2) [4]: 270.4 Å²; collision cross section (N2) ([5]; [M+Na]+): 274.1 Å²; collision cross section (N2) ([5]; [M-H]-): 262.5 Å²
CCCC/C=C\CCCCCCCC(=O)OC[C@H](COP(=O)(O)OC[C@@H](O)CO)OC(=O)CCCCCCCCC/C=C\CCCCCCCCCC [PG(36:2)]				collision cross section (N2) [2]: 274.9 Å²; collision cross section (N2) ([3]; [M+H]+): 288.9 Å²; collision cross section (N2) ([3]; [M+Na]+): 286 Å²; collision cross section (N2) [4]: 282.3 Å² and 281.9 Å²; collision cross section (N2) ([5]; [M+Na]+): 284.7 Å²; collision cross section (N2) ([5]; [M-H]-): 274.3 Å²
O=C1C=C2C(=CCOC2O)O1 (stereo unspecified) [Patulin]				collision cross section (N2) ([1]; [M+H3C2O2]-): 142 Å²
C=C(C)C(=O)/C(=C/C(=O)O)OC [Penicillic acid]	131			
C[C@H]1CCC[C@H](O)CCC/C=C/c2cc(O)cc(O)c2C(=O)O1 [alpha-zearalenol]				collision cross section (N2) ([1]; [M-H]-): 173 Å²
